Test results: ChEMBL document CHEMBL4130627, “Prodrugs of the Phosphoribosylated Forms of Hydroxypyrazinecarboxamide Pseudobase T-705 and Its De-Fluoro Analogue T-1105 as Potent Influenza Virus Inhibitors” (J Med Chem, 2018)
Calls of active or inactive are those of the source. The calls are words filed in the database; no cut-off is given here.

Tests used:
[1] = Prodrug activation in phosphate buffer at pH 7.3 assessed as half life for T-1105-RDP formation at 450 uM after 24 to 120 hrs by RP-HPLC-UV analysis; format: physicochemical; settings: pH 7.3, 450 µM
Liver carboxylesterase [2] = molecular target: T1, Liver carboxylesterase (Sus scrofa, UniProt Q29550); experiment: Prodrug activation assessed as pig liver esterase mediated metabolite formation at 450 uM up to 150 mins by RP-HPLC-UV analysis; format: ADME; settings: isolated protein, 2.5 h
T1 sequence (Q29550 whole entry): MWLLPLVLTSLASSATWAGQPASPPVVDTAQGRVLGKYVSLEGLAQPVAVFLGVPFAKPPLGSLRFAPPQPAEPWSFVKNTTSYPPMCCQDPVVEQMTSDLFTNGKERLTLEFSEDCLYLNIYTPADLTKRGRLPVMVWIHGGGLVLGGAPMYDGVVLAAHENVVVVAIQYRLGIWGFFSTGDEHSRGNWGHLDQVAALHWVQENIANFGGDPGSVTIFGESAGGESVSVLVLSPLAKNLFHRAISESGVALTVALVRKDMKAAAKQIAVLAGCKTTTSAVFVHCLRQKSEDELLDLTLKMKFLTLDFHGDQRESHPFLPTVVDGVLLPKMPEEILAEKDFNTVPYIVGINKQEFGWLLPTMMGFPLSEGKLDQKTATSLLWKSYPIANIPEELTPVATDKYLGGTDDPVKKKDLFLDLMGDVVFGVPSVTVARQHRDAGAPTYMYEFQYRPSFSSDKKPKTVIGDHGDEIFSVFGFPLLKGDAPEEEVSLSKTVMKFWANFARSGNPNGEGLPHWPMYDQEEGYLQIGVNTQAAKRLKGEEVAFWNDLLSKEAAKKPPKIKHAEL

Liver carboxylesterase [3] = molecular target: T1, Liver carboxylesterase; experiment: Drug metabolism assessed as pig liver esterase mediated 4-((((((2R,3S,4R,5R)-5-(3-carbamoyl-2-oxopyrazin-1(2H)-yl)-3,4-dihydroxytetrahydrofuran-2-yl)methoxy)(hydroxy)phosphoryloxy)(hydroxy)phosphoryloxy)methyl)phenyl decanoate formation at 450 uM after 150 mins by RP-HPLC-UV analysis; format: ADME; settings: isolated protein, 2.5 h
[4] = Cytotoxicity against MDCK cells assessed as change in cell morphology after 3 days by microscopic analysis; format: cell-based, Canis lupus familiaris; settings: dog
[5] = Cytotoxicity against MDCK cells assessed as reduction in cell viability after 3 days by formazan-based MTS assay; parameters: species or system Canis lupus familiaris; settings: dog
[6] = Cytotoxicity against HGPRT deficient 6-thioguanine-resistant MDCK cells assessed as change in cell morphology after 3 days by microscopic analysis; format: cell-based, Canis lupus familiaris; settings: dog
[7] = Drug metabolism in MDCK cells assessed as T-1105-RDP formation at 450 uM up to 4 hrs by RP-HPLC-UV analysis; format: ADME, cell-based, Canis lupus familiaris; settings: dog
[8] = Drug metabolism in MDCK cells assessed as 4-((((((2R,3S,4R,5R)-5-(3-carbamoyl-2-oxopyrazin-1(2H)-yl)-3,4-dihydroxytetrahydrofuran-2-yl)methoxy)(hydroxy)phosphoryloxy)(hydroxy)phosphoryloxy)methyl)phenyl decanoate formation at 450 uM up to 4 hrs by RP-HPLC-UV analysis; format: ADME, cell-based, Canis lupus familiaris; settings: dog
MDCK [9] = experiment: Prodrug activation in MDCK cells assessed as T-1105-RMP formation at 450 uM up to 4 hrs by RP-HPLC-UV analysis; format: cell-based, Canis lupus familiaris; settings: dog
MDCK [10] = experiment: Prodrug activation in MDCK cells assessed as T-1105-RTP formation at 450 uM up to 4 hrs by RP-HPLC-UV analysis; format: cell-based, Canis lupus familiaris; settings: dog
MDCK [11] = experiment: Prodrug activation in MDCK cells assessed as T-1105-RDP formation at 500 uM after 2 hrs by RP-HPLC-UV analysis; format: cell-based, Canis lupus familiaris; settings: dog
MDCK [12] = format: cell-based, Canis lupus familiaris; settings: dog, 2 h, 500 µM
A549 = experiment: Cytotoxicity against human A549 cells assessed as reduction in cell viability at 100 uM; format: cell-based; settings: a549, 100 µM
[13] = Inhibition of Influenza virus A/X-31 RNA dependent RNA polymerase using ApG primer [adenyl (3'-5') guanosine] and [8-3H]GTP after 1 hr by filter-based assay; parameters: species or system Influenza A virus (A/X-31(H3N2))
[14] = Inhibition of Influenza virus B/Ned/537/05 RNA dependent RNA polymerase using ApG primer [adenyl (3'-5') guanosine] and [8-3H]GTP after 1 hr by filter-based assay
Influenza A virus [15] = format: functional, organism-based; settings: Influenza A virus (A/X-31(H3N2)); MDCK; 6 uM
Influenza A virus [16] = format: functional, organism-based; settings: Influenza A virus (A/X-31(H3N2)); MDCK; 12 to 25 uM
Influenza A virus [17] = format: functional, organism-based; settings: Influenza A virus (A/X-31(H3N2)); MDCK; 25 uM
[18] = test system: unidentified influenza virus; experiment: Antiviral activity against Influenza virus infected in human A549 cells; format: functional
[19] = test system: unidentified influenza virus; experiment: Potency index, ratio of T-1105 EC99 to compound EC99 for Influenza virus infected in human A549 cells; format: functional
Influenza A virus [20] = format: functional, organism-based; settings: Influenza A virus (A/X-31(H3N2)); MDCK; 25 uM; remark: listed apart in the source
Influenza A virus [21] = format: functional, organism-based; settings: Influenza A virus (A/X-31(H3N2)); MDCK; 25 uM; remark: listed apart in the source
Influenza A virus [22] = format: functional, organism-based; settings: Influenza A virus (A/X-31(H3N2)); MDCK; 12 to 25 uM; remark: listed apart in the source
Influenza A virus [23] = experiment: microbe, parasite or virus in culture; settings: MDCK, 72 h
Description: Antiviral activity against Influenza virus A/X-31 infected in MDCK cells assessed as reduction in viral replication at 3 days post infection by microscopic analysis

Influenza A virus [24] = experiment: microbe, parasite or virus in culture; settings: MDCK, 72 h; remark: listed apart in the source
Description: Antiviral activity against Influenza virus A/X-31 infected in MDCK cells assessed as reduction in viral replication at 3 days post infection by formazan-based MTS assay

Influenza B virus [25] = experiment: microbe, parasite or virus in culture; settings: Ned/537/05, MDCK, 72 h
Description: Antiviral activity against Influenza virus B/Ned/537/05 infected in MDCK cells assessed as reduction in viral replication at 3 days post infection by microscopic analysis

Influenza B virus [26] = experiment: microbe, parasite or virus in culture; settings: Ned/537/05, MDCK, 72 h; remark: listed apart in the source
Description: Antiviral activity against Influenza virus B/Ned/537/05 infected in MDCK cells assessed as reduction in viral replication at 3 days post infection by formazan-based MTS assay

MDCK [27] = experiment: Prodrug activation in HGPRT deficient 6-thioguanine-resistant MDCK cells by RP-HPLC-UV analysis; format: cell-based, Canis lupus familiaris; settings: dog
MDCK [28] = experiment: Prodrug activation in MDCK cells by RP-HPLC-UV analysis; format: cell-based, Canis lupus familiaris; settings: dog
MDCK [29] = experiment: Prodrug activation in MDCK cells assessed as parent compound remaining at 714 uM after 19 hrs by RP-HPLC-UV analysis; format: cell-based, Canis lupus familiaris; settings: dog
MDCK [30] = experiment: Prodrug activation in MDCK cells assessed as T-1105-RMP formation at 714 uM after 19 hrs by RP-HPLC-UV analysis; format: cell-based, Canis lupus familiaris; settings: dog
MDCK [31] = format: cell-based, Canis lupus familiaris; settings: dog, 714 µM
Influenza A virus [32] = format: functional, organism-based; settings: Influenza A virus (A/X-31(H3N2)); MDCK; 250 uM
Influenza A virus [33] = format: functional, organism-based; settings: Influenza A virus (A/X-31(H3N2)); MDCK; 25 uM; remark: listed apart in the source
Influenza A virus [34] = format: functional, organism-based; settings: Influenza A virus (A/X-31(H3N2)); MDCK; 12 to 50 uM
Influenza A virus [35] = format: functional, organism-based; settings: Influenza A virus (A/X-31(H3N2)); MDCK; 250 uM; remark: listed apart in the source
Influenza A virus [36] = format: functional, organism-based; settings: Influenza A virus (A/X-31(H3N2)); MDCK; 12 to 50 uM; remark: listed apart in the source
[37] = Drug metabolism in MDCK cells assessed as T-1105-RTP formation at 465 uM after 2 hrs in presence of 5mM ATP by RP-HPLC-UV analysis; format: ADME, cell-based, Canis lupus familiaris; settings: dog
MDCK [38] = experiment: Prodrug activation in MDCK cells assessed as T-1105-RMP formation at 465 uM after 1 to 840 mins by RP-HPLC-UV analysis; format: cell-based, Canis lupus familiaris; settings: dog
MDCK [39] = experiment: Cytotoxicity against MDCK cells assessed as reduction in cell viability at 37 uM after 3 days by formazan-based MTS assay; parameters: species or system Canis lupus familiaris; settings: dog, 72 h
[40] = molecular target: Membrane-associated guanylate kinase, WW and PDZ domain-containing protein 1 (Homo sapiens) (UniProt Q96QZ7); experiment: Inhibition of human recombinant guanylate kinase 1 mediated […] conversion at 400 uM preincubated for 10 mins followed by enzyme addition measured up to 60 mins by UV absorbance method relative to control
Chain of Membrane-associated guanylate kinase, WW and PDZ domain-containing protein 1 (Homo sapiens) (Q96QZ7 whole entry, the tested form may be a part): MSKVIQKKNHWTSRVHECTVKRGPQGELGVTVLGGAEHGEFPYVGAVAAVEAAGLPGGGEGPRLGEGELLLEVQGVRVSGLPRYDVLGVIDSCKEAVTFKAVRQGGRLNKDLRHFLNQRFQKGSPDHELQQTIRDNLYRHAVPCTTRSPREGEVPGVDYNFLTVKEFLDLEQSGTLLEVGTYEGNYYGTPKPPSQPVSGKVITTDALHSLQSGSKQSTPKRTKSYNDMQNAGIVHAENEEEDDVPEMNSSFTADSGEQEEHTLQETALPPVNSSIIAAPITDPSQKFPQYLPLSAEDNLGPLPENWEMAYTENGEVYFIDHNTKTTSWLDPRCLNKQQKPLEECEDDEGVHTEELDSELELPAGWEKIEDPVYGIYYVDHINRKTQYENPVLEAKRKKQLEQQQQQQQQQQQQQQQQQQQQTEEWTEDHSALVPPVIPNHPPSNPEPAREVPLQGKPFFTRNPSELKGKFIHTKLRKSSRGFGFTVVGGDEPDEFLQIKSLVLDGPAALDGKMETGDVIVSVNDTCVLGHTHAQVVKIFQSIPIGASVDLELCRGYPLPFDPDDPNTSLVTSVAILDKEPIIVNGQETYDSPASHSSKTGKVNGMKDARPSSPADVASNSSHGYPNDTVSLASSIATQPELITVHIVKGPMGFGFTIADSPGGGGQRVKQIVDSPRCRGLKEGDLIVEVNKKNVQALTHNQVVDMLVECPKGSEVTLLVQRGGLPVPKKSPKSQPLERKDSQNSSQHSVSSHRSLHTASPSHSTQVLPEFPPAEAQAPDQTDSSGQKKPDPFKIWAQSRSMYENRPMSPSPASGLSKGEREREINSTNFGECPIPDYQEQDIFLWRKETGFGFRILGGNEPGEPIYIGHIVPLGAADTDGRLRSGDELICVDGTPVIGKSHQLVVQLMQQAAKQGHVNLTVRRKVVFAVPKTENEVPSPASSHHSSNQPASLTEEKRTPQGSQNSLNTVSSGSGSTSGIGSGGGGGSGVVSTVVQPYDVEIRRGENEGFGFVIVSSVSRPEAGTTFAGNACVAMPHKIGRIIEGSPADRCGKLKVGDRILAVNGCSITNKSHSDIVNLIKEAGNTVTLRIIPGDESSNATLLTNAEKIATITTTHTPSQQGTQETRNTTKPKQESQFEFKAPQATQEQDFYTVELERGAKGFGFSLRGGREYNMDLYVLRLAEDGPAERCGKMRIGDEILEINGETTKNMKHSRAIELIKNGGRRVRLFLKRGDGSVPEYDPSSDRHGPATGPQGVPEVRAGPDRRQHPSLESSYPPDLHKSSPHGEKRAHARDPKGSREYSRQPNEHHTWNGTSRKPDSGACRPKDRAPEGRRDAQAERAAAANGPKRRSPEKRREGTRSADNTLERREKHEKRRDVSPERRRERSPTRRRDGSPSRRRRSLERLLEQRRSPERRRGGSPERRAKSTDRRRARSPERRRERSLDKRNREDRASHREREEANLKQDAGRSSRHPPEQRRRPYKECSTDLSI

[41] = molecular target: Membrane-associated guanylate kinase, WW and PDZ domain-containing protein 1 (Homo sapiens) (UniProt Q96QZ7); experiment: Inhibition of human recombinant guanylate kinase 1 mediated […] conversion at 200 uM preincubated for 10 mins followed by enzyme addition measured up to 60 mins by UV absorbance method relative to control
[42] = molecular target: Membrane-associated guanylate kinase, WW and PDZ domain-containing protein 1 (Homo sapiens) (UniProt Q96QZ7); experiment: Inhibition of human recombinant guanylate kinase 1 mediated […] conversion at 100 uM preincubated for 10 mins followed by enzyme addition measured up to 60 mins by UV absorbance method relative to control
[43] = Drug metabolism in MDCK cells assessed as T-1105-RTP formation at 465 uM in presence of GTP by RP-HPLC-UV analysis; format: ADME, cell-based, Canis lupus familiaris; settings: dog
MDCK [44] = experiment: Prodrug activation in HGPRT deficient MDCK cells assessed as T-1105-RMP formation at 465 uM after 1 to 840 mins by RP-HPLC-UV analysis; format: cell-based, Canis lupus familiaris; settings: dog
[45] = Drug metabolism in MDCK cells assessed as T-1105-RDP formation at 465 uM during 15 hrs by RP-HPLC-UV analysis; format: ADME, cell-based, Canis lupus familiaris; settings: dog
[46] = Drug metabolism in MDCK cells assessed as T-1105-RTP formation at 465 uM during 15 hrs by RP-HPLC-UV analysis; format: ADME, cell-based, Canis lupus familiaris; settings: dog
[47] = molecular target: Membrane-associated guanylate kinase, WW and PDZ domain-containing protein 1 (Homo sapiens) (UniProt Q96QZ7); experiment: Inhibition of human recombinant guanylate kinase 1 mediated […] conversion at 25 to 400 uM preincubated for 10 mins followed by enzyme addition measured up to 60 mins by UV absorbance method

Compound: CCCCCCCCCC(=O)Oc1ccc(COP(=O)(OCc2ccc(OC(=O)CCCCCCCCC)cc2)OP(=O)(O)OC[C@H]2O[C@@H](n3ccnc(C(N)=O)c3=O)[C@H](O)[C@@H]2O)cc1.CCN(CC)CC
- t1/2 [1]: 30 h
- Drug metabolism (Liver carboxylesterase [2]): Metabolite_Detected
- Drug metabolism (Liver carboxylesterase [3]): Metabolite_Detected
- MCC at 72 h [4]: 37 µM
- CC50 at 72 h [5]: > 100 µM
- MCC at 72 h [6]: 22 µM
- Drug metabolism [7]: Metabolite_Detected
- Drug metabolism [8]: Metabolite_Detected
- Drug metabolism (MDCK [9]): Metabolite_Detected
- Drug metabolism (MDCK [10]): Metabolite_Notdetected
- Drug metabolism (MDCK [11]): Metabolite_Detected
- Drug metabolism (MDCK [12]): Metabolite_Detected
- Activity (A549): Non-Toxic
- IC50 [13]: 49 to 126 µM
- IC50 [14]: 49 to 126 µM
- inhibition (Influenza A virus [15]): Active
- inhibition (Influenza A virus [16]): Active
- inhibition (Influenza A virus [17]): Active
- EC99 [18]: 72 µM
- Ratio [19]: 2
- inhibition (Influenza A virus [20]): inactive
- inhibition (Influenza A virus [21]): inactive
- inhibition (Influenza A virus [22]): Active
- EC50 (Influenza A virus [23]): 1.3 µM
- EC50 (Influenza A virus [24]): 1 µM
- EC50 (Influenza B virus [25]): 0.81 µM
- EC50 (Influenza B virus [26]): 0.56 µM

Compound: NC(=O)c1nc(Br)cnc1O
- MCC at 72 h [4]: > 250 µM
- CC50 at 72 h [5]: > 250 µM
- MCC at 72 h [6]: > 250 µM
- Drug metabolism (MDCK [27]): Metabolite_Notdetected
- Drug metabolism (MDCK [28]): Metabolite_Notdetected
- EC50 (Influenza A virus [23]): > 250 µM
- EC50 (Influenza A virus [24]): > 250 µM
- EC50 (Influenza B virus [25]): > 250 µM
- EC50 (Influenza B virus [26]): > 250 µM

Compound: NC(=O)c1nccnc1O
- MCC at 72 h [4]: > 250 µM
- CC50 at 72 h [5]: > 250 µM
- MCC at 72 h [6]: > 250 µM
- Stability (MDCK [29]): 10%
- Drug metabolism (MDCK [30]): Metabolite_Detected
- Drug metabolism (MDCK [31]): Metabolite_Notdetected
- inhibition (Influenza A virus [32]): Active
- inhibition (Influenza A virus [33]): Active
- inhibition (Influenza A virus [34]): Active
- inhibition (Influenza A virus [17]): Active
- EC99 [18]: 134 µM
- inhibition (Influenza A virus [20]): inactive
- inhibition (Influenza A virus [21]): inactive
- inhibition (Influenza A virus [35]): Active
- inhibition (Influenza A virus [36]): Active
- EC50 (Influenza A virus [23]): 6.4 µM
- EC50 (Influenza A virus [24]): 5.4 µM
- EC50 (Influenza B virus [25]): 2.8 µM
- EC50 (Influenza B virus [26]): 2.1 µM

Compound: NC(=O)c1nccn([C@@H]2O[C@H](COP(=O)(O)OP(=O)(O)O)[C@@H](O)[C@H]2O)c1=O
- Drug metabolism [37]: Metabolite_Detected
- Drug metabolism (MDCK [38]): Metabolite_Detected
- Activity (MDCK [39]): Non-Toxic
- inhibition [40]: 82%
- inhibition [41]: 62%
- inhibition [42]: 37%
- Drug metabolism [43]: Metabolite_Detected
- Drug metabolism (MDCK [44]): Metabolite_Detected

Compound: NC(=O)c1nccn([C@@H]2O[C@H](COP(=O)(O)O)[C@@H](O)[C@H]2O)c1=O
- Drug metabolism [45]: Metabolite_Notdetected
- Drug metabolism [46]: Metabolite_Notdetected
- inhibition [47]: inactive
